Test results: US20250170114A1, “METHODS OF TREATMENT USING T-TYPE CALCIUM CHANNEL MODULATORS” (Praxis Precision Medicines, Inc., priority 2022, published 2025)

Columns and labels:
participants with ET = experiment: Phase 2 trial: Clinical Global Impression-Improvement (CGI-I); type: in vivo, human
From the text: The Clinical Global Impression-Improvement (CGI-I) (Guy 1976) assesses the clinician's impression of the participant's functioning prior to and after initiating study medication. The clinician should use his/her total clinical experience with this patient population and rate the current severity of the participant's essential tremor symptoms on a 7-point scale from 1 (Normal, not at all ill) to 7 (Among the most extremely ill patients). Accordingly, in some embodiments, the methods of the present invention result in a decrease in CGI-I score compared to baseline, e.g., prior to treatment. Key safety measures included clinical laboratory evaluations, 12-lead ECG, C-SSRS, and vital signs. Key efficacy assessments included the TETRAS Performance subscale, TETRAS Upper Limb using accelerometry, CGI, and PGI-C. Blood samples were obtained for the determination of study drug plasma concentrations using a validated bioanalytical method and may also be used for method development and/or metabolite characterization. In both phases, key safety measures included clinical laboratory evaluations, 12-lead ECG, C-SSRS, and vital signs. Key efficacy assessments included the TETRAS Performance subscale, TETRAS Upper Limb using accelerometry, CGI, PGI-C, TETRAS ADL Subscale, QUEST, BDI-II, and BAI. Blood samples were obtained for the determination of study drug and metabolite plasma concentrations.

[1] = Phase 2 trial: study drug plasma concentrations; type: in vivo, human
From the text: Key safety measures included clinical laboratory evaluations, 12-lead ECG, C-SSRS, and vital signs. Key efficacy assessments included the TETRAS Performance subscale, TETRAS Upper Limb using accelerometry, CGI, and PGI-C. Blood samples were obtained for the determination of study drug plasma concentrations using a validated bioanalytical method and may also be used for method development and/or metabolite characterization. In both phases, key safety measures included clinical laboratory evaluations, 12-lead ECG, C-SSRS, and vital signs. Key efficacy assessments included the TETRAS Performance subscale, TETRAS Upper Limb using accelerometry, CGI, PGI-C, TETRAS ADL Subscale, QUEST, BDI-II, and BAI. Blood samples were obtained for the determination of study drug and metabolite plasma concentrations.

[2] = system: Harmaline induced tremor activity in male Sprague Dawley (SD) rats; experiment: Harmaline-induced tremor activity measured with a piezoelectric plate; type: in vivo, rat; settings: harmaline 30 mg/kg i.p., 1 mg/kg p.o. alone
Procedure: This study sought to evaluate the effects of the HCl salt of the compound of Formula (I) (the “study drug”) administered alone (1 mg/kg, p.o.) or in combination with propranolol (1 and 3 mg/kg, i.p. at 20 min prior) in Harmaline (10 or 30 mg/kg, i.p.) induced tremor activity measured with a piezoelectric plate in male Sprague Dawley (SD) rats.
Rats were fed ad lib and kept at a 12:12 light-dark cycle throughout the study. There were N=15 in each group. Harmaline and propranolol were each formulated with saline using a volume of 5 ml/kg bodyweight. Vehicle for the study drug (1 mg/kg) was 0.5% methyl cellulose/0.1% Tween-80 in water.
1) Rats were allowed to acclimate in standard laboratory animal facility conditions for at least 5-7 days prior to use. 2) Rat was put in a Plexiglas chamber with a piezoelectric plate attached at the bottom to transduce tremor behavior into electronic signal. […] 3) One day prior to the first testing day, a naive rat was put in the testing chamber to confirm that the spontaneous activity baseline was within the range of 3000-10000 uv, as this sensitivity level generally allows all the tremor signal to be detected with the system. […] 11) Post-harmaline effect was measured for 20 min (10-30 min). […]

[3] = system: harmaline-induced hypolocomotion in male SD rats; experiment: Co-dosing with propranolol in rat harmaline-induced hypolocomotion (open field, 30 min); type: in vivo; settings: harmaline 30 mg/kg, 3 mg/kg study drug alone (without propranolol), identical study
Procedure: Two harmaline model studies using sLMA as one ADL-like end point were carried out. In each of two sLMA studies, male SD rats were grouped into five groups according to the following table. In the first study, Groups 3, 4, and 5 received 3 mg/kg of propranolol and the compound of Formula (I) (the study drug) at the doses of 1 mg/kg or 3 mg/kg. In the second study, Groups 3, 4, and 5, received 10 mg/kg of propranolol and the study drug at the doses of 1 mg/kg or 3 mg/kg.
Rats were then subjected to an open field test for 30 minutes. Total distance travelled was measured.

[4] = Plasma and brain tissue concentrations in rats after harmaline testing; type: in vivo, rat; settings: collected immediately after harmaline testing
Procedure: Plasma and brain tissue sample collection (at 90 min post dosing of study compound) was evaluated in […]. N=15 in each group. Plasma and brain tissue samples were collected immediately after harmaline testing. Plasma sample number: 5×15=75. Brain tissue sample number: 5×15=75.

## CC(C)(C)NC(=O)CN1CCC(CNC(=O)c2cc(F)cc(Cl)c2)CC1.Cl [Study drug]
Participants with ET; Part B OLT (FAS), Day 7, n = 12
  CGI-I Score 5 minimally worse: 1 n (%)
Participants with ET; Part B RWD (RWAS), Day 70, study drug group, n = 5, vs randomization baseline
  CGI-I Score 5 minimally worse: 1 n (%)
[1]; 1-hour post-dose, all participants
  study drug plasma concentrations: Measurable
[1]; after 56 days of daily dosing and a 14-day washout period
  study drug plasma concentrations: undetectable
[1]; human, plasma, oral, 120 mg, Part B, Day 42, steady-state
  concentration at 42 day: 379 ng/mL
[1]; human, plasma, oral, Part B, Day 56
  concentration at 56 day: 344 ng/mL
[2]
  harmaline-induced tremor (tremor power in the 8-13 Hz and 6-15 Hz bands): significantly reduces
[3]
  harmaline-induced hypolocomotion (traveling distance in 0-30 minutes) vs harmaline and vehicle: not significantly different
[4]
  plasma and brain concentrations: consistent with those measured in previous studies
